The source made the active and inactive calls. The calls are words filed in the database; no cut-off is given here.
Assays:
[1] = Cytotoxicity against human HepG2 cells assessed as cellular ATP level at 100 uM after 1 day by ATPLite assay relative to control; assay type: cell-based; conditions: read-out: Activity
[2] = Lipophilicity, log D of the compound at pH 7.4 by HPLC analysis; assay type: physicochemical; conditions: buffer
hERG (KCNH2) = hERG (KCNH2) (Homo sapiens, UniProt Q12809); assay: Inhibition of human ERG expressed in HEK cells at 10 uM at -75 mV holding potential by Whole-cell voltage clamp assay relative to control; assay type: cell-based; conditions: HEK cells expressing human ERG
hERG (KCNH2), sequence (Q12809 whole entry): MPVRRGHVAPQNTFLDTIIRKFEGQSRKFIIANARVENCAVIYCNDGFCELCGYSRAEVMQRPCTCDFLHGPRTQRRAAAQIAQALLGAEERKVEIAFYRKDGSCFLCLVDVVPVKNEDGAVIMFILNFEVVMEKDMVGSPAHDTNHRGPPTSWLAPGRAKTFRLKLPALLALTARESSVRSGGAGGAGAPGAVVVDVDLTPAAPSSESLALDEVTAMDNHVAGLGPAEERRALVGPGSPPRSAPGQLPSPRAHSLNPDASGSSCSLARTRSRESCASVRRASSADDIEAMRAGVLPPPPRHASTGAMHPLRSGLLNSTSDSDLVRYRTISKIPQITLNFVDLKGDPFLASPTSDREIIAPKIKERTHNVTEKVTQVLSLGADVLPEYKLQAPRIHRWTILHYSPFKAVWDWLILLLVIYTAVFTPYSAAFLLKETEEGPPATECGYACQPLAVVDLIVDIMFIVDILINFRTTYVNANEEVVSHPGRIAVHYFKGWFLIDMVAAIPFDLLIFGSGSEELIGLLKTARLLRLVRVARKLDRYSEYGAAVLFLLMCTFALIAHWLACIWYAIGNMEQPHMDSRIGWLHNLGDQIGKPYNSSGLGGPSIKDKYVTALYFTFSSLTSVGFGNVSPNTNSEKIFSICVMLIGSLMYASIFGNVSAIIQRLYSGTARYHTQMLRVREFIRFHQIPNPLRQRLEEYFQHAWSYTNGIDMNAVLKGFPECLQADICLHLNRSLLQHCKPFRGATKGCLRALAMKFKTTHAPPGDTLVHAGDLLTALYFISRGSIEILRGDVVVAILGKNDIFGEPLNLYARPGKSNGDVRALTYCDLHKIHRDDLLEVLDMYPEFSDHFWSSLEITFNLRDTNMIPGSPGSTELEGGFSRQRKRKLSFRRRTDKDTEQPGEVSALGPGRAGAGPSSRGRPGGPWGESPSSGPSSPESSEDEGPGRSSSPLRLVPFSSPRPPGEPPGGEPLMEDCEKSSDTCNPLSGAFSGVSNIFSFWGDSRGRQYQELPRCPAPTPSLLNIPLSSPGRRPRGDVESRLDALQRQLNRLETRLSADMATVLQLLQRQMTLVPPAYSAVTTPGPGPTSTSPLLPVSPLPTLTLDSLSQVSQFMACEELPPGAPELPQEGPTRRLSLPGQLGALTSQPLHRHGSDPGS

[3] = Inhibition of H+/K+-ATPase in porcine stomach gastric mucosal microsomes assessed as reduction in inorganic phosphate production using ATP as substrate preincubated for 30 mins followed by ATP addition in presence of KCl by malachite green reagent based colorimetric assay; design: species or system Sus scrofa
[4] = Cytotoxicity against human HepG2 cells assessed as cellular ATP level at 30 uM after 1 day by ATPLite assay relative to control; assay type: cell-based; conditions: read-out: Activity
[5] = Dissociation constant, pKa of the compound; assay type: physicochemical
Rattus norvegicus [6] = assay: Inhibition of histamine-induced acid secretion in Jcl:SD rat gastric at 1 mg/kg, iv pretreated for 3 mins followed by histamine.2HCl treatment measured after 3 hrs by titration method; assay type: functional
Rattus norvegicus [7] = assay: Inhibition of histamine-induced acid secretion in Jcl:SD rat gastric assessed as pH of gastric perfusate at 0.7 mg/kg, iv pretreated for 3 mins followed by histamine.2HCl treatment measured after 5 hrs by glass electrode method (reference value: 2); assay type: functional
[8] = Effective permeability of the compound at 10 uM at pH 5 after 3 hrs by PAMPA; assay type: physicochemical; conditions: read-out: Peff
Canis familiaris [9] = assay: Inhibition of histamine-induced acid secretion in dog heidenhain pouch at 0.8 mg/kg, po treated 1 day after and 1 to 48 hrs before histamine.2HCl treatment measured 30 mins post histamine challenge by titration method; assay type: functional; conditions: Canis lupus familiaris
Rattus norvegicus [10] = assay: Inhibition of histamine-induced acid secretion in po dosed rat gastric pretreated for 1 hr followed by histamine.2HCl treatment measured after 3 hrs by titration method; assay type: functional, organism-based
[11] = Inhibition of CYP450 (unknown origin); assay type: ADME; conditions: human
[12] = Effective permeability of the compound at 10 uM at pH 7.4 after 3 hrs by PAMPA; assay type: physicochemical; conditions: read-out: Peff
[13] = Stability of the compound under acidic condition; assay type: physicochemical
Canis familiaris [14] = assay: Inhibition of histamine-induced acid secretion in dog heidenhain pouch at 3 mg/kg, po treated 1 day after and 1 to 48 hrs before histamine.2HCl treatment measured 30 mins post histamine challenge by titration method; assay type: functional, organism-based; conditions: Canis lupus familiaris
Rattus norvegicus [15] = assay: Inhibition of histamine-induced acid secretion in Jcl:SD rat gastric assessed as pH of gastric perfusate at 3 mg/kg, iv pretreated for 3 mins followed by histamine.2HCl treatment measured in early time point by glass electrode method (reference value: 2); assay type: functional
Rattus norvegicus [16] = assay: Inhibition of histamine-induced acid secretion in Jcl:SD rat gastric assessed as increase in pH of gastric perfusate at 3 mg/kg, iv pretreated for 3 mins followed by histamine.2HCl treatment measured up to 5 hrs by glass electrode method; assay type: functional, organism-based
Rattus norvegicus [17] = assay: Inhibition of histamine-induced acid secretion in Jcl:SD rat gastric assessed as increase in pH of gastric perfusate at 1 mg/kg, iv pretreated for 3 mins followed by histamine.2HCl treatment measured after 2 hrs by glass electrode method; assay type: functional, organism-based
Rattus norvegicus [18] = assay: Inhibition of histamine-induced acid secretion in Jcl:SD rat gastric assessed as pH of gastric perfusate at 1 mg/kg, iv pretreated for 3 mins followed by histamine.2HCl treatment measured up to 2 hrs by glass electrode method (reference value: 2); assay type: functional

Row | SMILES | viability at 24 h, 100 µM [1] | logD [2] | inhibition at 10 µM (hERG (KCNH2)) | IC50 [3] | inhibition in vivo at 1 mg/kg (Rattus norvegicus [6]) | also measured
1 | CNCc1cc(-c2ccccn2)n(S(=O)(=O)c2ccccc2)c1 | 91.2% | 0.28 | 48% | 120 nM |  | 
2 | CNCc1cc(-c2ccccc2F)n(S(=O)(=O)c2ccc(C)cc2)c1 |  | 1.56 |  | 34 nM | 91% | viability at 24 h, 30 µM [4]: 8%; pKa [5]: 9.48
3 | CNCc1cc(-c2ccccc2C(F)(F)F)n(S(=O)(=O)c2ccc(C)cc2)c1 |  | 1.94 |  | 88 nM | 86% | viability at 24 h, 30 µM [4]: 0.5%
4 | CNCc1cc(-c2cnccc2C)n(S(=O)(=O)c2cccnc2)c1 | 86% | -0.51 | 8.3% | 230 nM | -54% | 
5 | CNCc1cc(-c2cccnc2F)n(S(=O)(=O)c2ccc(OC)nc2)c1 | 47.6% | 0.24 | 33.1% | 40 nM | 97% | 
6 | CNCc1cc(-c2cccc(F)c2)n(S(=O)(=O)c2ccc(C)cc2)c1 |  | 1.98 |  | 19 nM | 77% | viability at 24 h, 30 µM [4]: 0.6%; pKa [5]: 9.31
7 | CNCc1cc(-c2cccnc2F)n(S(=O)(=O)c2ccsc2)c1 | 64% | -0.83 | 60% | 32 nM | 98% | 
8 | CNCc1cn(S(=O)(=O)c2cccnc2)c(-c2cccnc2F)c1C | 47.1% | -0.4 | 30.3% | 220 nM | 93% | 
9 | CNCc1cn(S(=O)(=O)c2cccnc2)c(-c2cccnc2F)c1F | 100% | 0.04 | 39.8% | 49 nM | 98% | pH (Rattus norvegicus [7]): 6; Papp at 3 h, 10 µM [8]: 4.7 ×10⁻⁶ cm/s; inhibition in vivo at 0.8 mg/kg (Canis familiaris [9]): 100%; inhibition (Rattus norvegicus [10]): Dose-dependent effect; inhibition (INH) [11]: Not Active; Papp at 3 h, 10 µM [12]: 25.6 ×10⁻⁶ cm/s; pKa [5]: 8.54; Stability [13]: Stable
10 | CNCc1cc(-c2cccnc2F)n(S(=O)(=O)c2ccccc2)c1 | 59.9% | -0.09 | 57% | 26 nM | 99% | 
11 | CNCc1cc(-c2ccccc2)n(S(=O)(=O)c2ccc(C)cc2)c1 |  | 1.83 |  | 46 to 55 nM | 66% | viability at 24 h, 30 µM [4]: 38.6%; pKa [5]: 9.49
12 | CNCc1cc(-c2cccnc2F)n(S(=O)(=O)c2cccc(OC)c2)c1 | 30.6% | 0.1 | 72.8% | 28 nM | 92% | 
13 | Cc1c(OCC(F)(F)F)ccnc1C[S+]([O-])c1nc2ccccc2[nH]1 (stereo unspecified) [LANSOPRAZOLE] |  |  |  |  |  | inhibition (Canis familiaris [14]): Active; inhibition (INH) [11]: Active; pH (Rattus norvegicus [15]): <5; inhibition (Rattus norvegicus [16]): inactive
14 | CNCc1cc(-c2ccncc2F)n(S(=O)(=O)c2cccnc2)c1 | 78.8% | -0.34 | 18.8% | 290 nM | 48% | 
15 | CNCc1cc(-c2cccnc2C#N)n(S(=O)(=O)c2ccccc2)c1 | 82.1% | -0.32 | 32.9% | 120 nM | 99% | inhibition (Rattus norvegicus [17]): inactive; pH (Rattus norvegicus [18]): >5
16 | CNCc1cc(-c2ncccc2C)n(S(=O)(=O)c2cccnc2)c1 | 88.7% | 0.53 |  | 1300 nM | 5% | 
17 | CNCc1cc(-c2cccnc2F)n(S(=O)(=O)c2cccc(F)c2)c1 | 65.9% | 0.23 | 56.2% | 33 nM | 99% | 
18 | CNCc1cc(-c2cccnc2Cl)n(S(=O)(=O)c2ccccc2)c1 | 76.3% | -0.1 | 40.9% | 43 nM | 99% | 

— ChEMBL document CHEMBL4020734, “Identification of a novel fluoropyrrole derivative as a potassium-competitive acid blocker with long duration of action” (Bioorg Med Chem, 2017)
